Results from ChEMBL document CHEMBL1126865, “Structure-activity relationship within a series of pyrazolidinone antibacterial agents. 2. Effect of side-chain modification on in vitro activity and pharmacokinetic parameters” (J Med Chem, 1993).
≈ marks a conversion by molar mass, not a printed value.

How the values were obtained:
Format in all cases: functional
[1] = tested on: Staphylococcus epidermidis; assay: In vitro antibacterial activity against Staphylococcus epidermidis 222
[2] = tested on: Klebsiella aerogenes; assay: In vitro antibacterial activity against Enterobacter aerogenes C32
[3] = tested on: Staphylococcus aureus; assay: In vitro antibacterial activity against Staphylococcus aureus X1.1
[4] = tested on: Klebsiella pneumoniae; assay: In vitro antibacterial activity against Klebsiella X26
[5] = tested on: Streptococcus pneumoniae; assay: In vitro antibacterial activity against Streptococcus pneumoniae PARK
[6] = tested on: Pseudomonas aeruginosa; assay: In vitro antibacterial activity against Pseudomonas PS72
[7] = tested on: Escherichia coli; assay: In vitro antibacterial activity against Escherichia coli EC14
[8] = tested on: Haemophilus influenzae; assay: In vitro antibacterial activity against Haemophilus influenza C.L

SMILES: N#CC1=C(C(=O)O)N2C(=O)[C@@H](NC(=O)CSc3cc(Cl)ccc3Cl)CN2C1
- MIC [1]: 4 µg/mL (≈ 9.36 µM)
- MIC [2]: > 128 µg/mL
- MIC [3]: 1 µg/mL (≈ 2.34 µM)
- MIC [4]: 8 µg/mL (≈ 18.7 µM)
- MIC [5]: 0.125 µg/mL (≈ 0.293 µM)
- MIC [6]: > 128 µg/mL
- MIC [7]: > 128 µg/mL
- MIC [8]: 8 µg/mL (≈ 18.7 µM)

SMILES: CCCCO/N=C(/C(=O)N[C@H]1CN2CC(S(C)(=O)=O)=C(C(=O)O)N2C1=O)c1csc(N)n1
- MIC [1]: 4 µg/mL (≈ 8.22 µM)
- MIC [2]: 1 µg/mL (≈ 2.06 µM)
- MIC [3]: 4 µg/mL (≈ 8.22 µM)
- MIC [4]: 0.03 µg/mL (≈ 0.0617 µM)
- MIC [5]: 0.06 µg/mL (≈ 0.123 µM)
- MIC [6]: > 128 µg/mL
- MIC [7]: 0.25 µg/mL (≈ 0.514 µM)
- MIC [8]: 0.125 µg/mL (≈ 0.257 µM)

SMILES: N#CC1=C(C(=O)O)N2C(=O)[C@@H](NC(=O)/C(=N/OCc3ccccc3)c3csc(N)n3)CN2C1
- MIC [1]: 8 µg/mL (≈ 17.1 µM)
- MIC [2]: 8 µg/mL (≈ 17.1 µM)
- MIC [3]: 8 µg/mL (≈ 17.1 µM)
- MIC [4]: 0.125 µg/mL (≈ 0.267 µM)
- MIC [5]: 0.06 µg/mL (≈ 0.128 µM)
- MIC [6]: > 128 µg/mL
- MIC [7]: 8 µg/mL (≈ 17.1 µM)
- MIC [8]: 0.25 µg/mL (≈ 0.535 µM)

SMILES: Nc1nc(/C(=N\OCCCl)C(=O)N[C@H]2CN3CC(S(=O)(=O)c4ccccc4)=C(C(=O)O)N3C2=O)cs1
- MIC [1]: 32 µg/mL (≈ 57.7 µM)
- MIC [2]: 4 µg/mL (≈ 7.21 µM)
- MIC [3]: 16 µg/mL (≈ 28.8 µM)
- MIC [4]: 0.06 µg/mL (≈ 0.108 µM)
- MIC [5]: 0.06 µg/mL (≈ 0.108 µM)
- MIC [6]: > 128 µg/mL
- MIC [7]: 1 µg/mL (≈ 1.8 µM)
- MIC [8]: 0.25 µg/mL (≈ 0.45 µM)

SMILES: CS(=O)(=O)C1=C(C(=O)O)N2C(=O)[C@@H](NC(=O)/C(=N/OCC(=O)O)c3csc(N)n3)CN2C1
- MIC [1]: > 128 µg/mL
- MIC [2]: 0.25 µg/mL (≈ 0.512 µM)
- MIC [3]: > 128 µg/mL
- MIC [4]: 0.125 µg/mL (≈ 0.256 µM)
- MIC [5]: 2 µg/mL (≈ 4.09 µM)
- MIC [6]: 128 µg/mL (≈ 262 µM)
- MIC [7]: 0.06 µg/mL (≈ 0.123 µM)
- MIC [8]: 1 µg/mL (≈ 2.05 µM)

SMILES: C=CCO/N=C(/C(=O)N[C@H]1CN2CC(C#N)=C(C(=O)O)N2C1=O)c1csc(N)n1
- MIC [1]: 16 µg/mL (≈ 38.3 µM)
- MIC [2]: 0.5 µg/mL (≈ 1.2 µM)
- MIC [3]: 32 µg/mL (≈ 76.7 µM)
- MIC [4]: 0.06 µg/mL (≈ 0.144 µM)
- MIC [5]: 0.125 µg/mL (≈ 0.299 µM)
- MIC [6]: > 128 µg/mL
- MIC [7]: 0.125 µg/mL (≈ 0.299 µM)
- MIC [8]: 0.125 µg/mL (≈ 0.299 µM)

SMILES: N#CC1=C(C(=O)O)N2C(=O)[C@@H](NC(=O)Cc3cccs3)CN2C1
- MIC [1]: 32 µg/mL (≈ 96.3 µM)
- MIC [2]: 64 µg/mL (≈ 193 µM)
- MIC [3]: 8 µg/mL (≈ 24.1 µM)
- MIC [4]: 32 µg/mL (≈ 96.3 µM)
- MIC [5]: 2 µg/mL (≈ 6.02 µM)
- MIC [6]: > 128 µg/mL
- MIC [7]: 16 µg/mL (≈ 48.1 µM)
- MIC [8]: 16 µg/mL (≈ 48.1 µM)

SMILES: CCCCS(=O)(=O)C1=C(C(=O)O)N2C(=O)[C@@H](NC(=O)/C(=N/OCCCl)c3csc(N)n3)CN2C1
- MIC [1]: 16 µg/mL (≈ 29.9 µM)
- MIC [2]: 1 µg/mL (≈ 1.87 µM)
- MIC [3]: 8 µg/mL (≈ 15 µM)
- MIC [4]: 0.03 µg/mL (≈ 0.0561 µM)
- MIC [5]: 0.125 µg/mL (≈ 0.234 µM)
- MIC [6]: > 128 µg/mL
- MIC [7]: 0.5 µg/mL (≈ 0.935 µM)
- MIC [8]: 0.5 µg/mL (≈ 0.935 µM)

SMILES: CS(=O)(=O)C1=C(C(=O)O)N2C(=O)[C@@H](NC(=O)/C(=N/OCCBr)c3csc(N)n3)CN2C1
- MIC [1]: 8 µg/mL (≈ 14.9 µM)
- MIC [2]: 0.125 µg/mL (≈ 0.233 µM)
- MIC [3]: 8 µg/mL (≈ 14.9 µM)
- MIC [4]: 0.03 µg/mL (≈ 0.0558 µM)
- MIC [5]: 0.125 µg/mL (≈ 0.233 µM)
- MIC [6]: > 128 µg/mL
- MIC [7]: 0.125 µg/mL (≈ 0.233 µM)
- MIC [8]: 0.125 µg/mL (≈ 0.233 µM)

SMILES: C=CCO/N=C(/C(=O)N[C@H]1CN2CC(S(=O)(=O)CC=C)=C(C(=O)O)N2C1=O)c1csc(N)n1
- MIC [1]: 32 µg/mL (≈ 64.4 µM)
- MIC [2]: 0.5 µg/mL (≈ 1.01 µM)
- MIC [3]: 8 µg/mL (≈ 16.1 µM)
- MIC [4]: 0.03 µg/mL (≈ 0.0604 µM)
- MIC [5]: 0.125 µg/mL (≈ 0.252 µM)
- MIC [6]: > 128 µg/mL
- MIC [7]: 0.125 µg/mL (≈ 0.252 µM)
- MIC [8]: 0.25 µg/mL (≈ 0.503 µM)

SMILES: CCS(=O)(=O)C1=C(C(=O)O)N2C(=O)[C@@H](NC(=O)/C(=N/OCCF)c3csc(N)n3)CN2C1
- MIC [1]: 32 µg/mL (≈ 65.2 µM)
- MIC [2]: 0.125 µg/mL (≈ 0.255 µM)
- MIC [3]: 16 µg/mL (≈ 32.6 µM)
- MIC [4]: 0.03 µg/mL (≈ 0.0612 µM)
- MIC [5]: 0.125 µg/mL (≈ 0.255 µM)
- MIC [6]: > 128 µg/mL
- MIC [7]: 0.06 µg/mL (≈ 0.122 µM)
- MIC [8]: 0.25 µg/mL (≈ 0.51 µM)

SMILES: C=CCO/N=C(/C(=O)N[C@H]1CN2CC(S(=O)(=O)CCC)=C(C(=O)O)N2C1=O)c1csc(N)n1
- MIC [1]: 32 µg/mL (≈ 64.2 µM)
- MIC [2]: 0.5 µg/mL (≈ 1 µM)
- MIC [3]: 16 µg/mL (≈ 32.1 µM)
- MIC [4]: 0.06 µg/mL (≈ 0.12 µM)
- MIC [5]: 0.06 µg/mL (≈ 0.12 µM)
- MIC [6]: > 128 µg/mL
- MIC [7]: 0.5 µg/mL (≈ 1 µM)
- MIC [8]: 0.25 µg/mL (≈ 0.501 µM)

SMILES: CCCS(=O)(=O)C1=C(C(=O)O)N2C(=O)[C@@H](NC(=O)/C(=N/OCCF)c3csc(N)n3)CN2C1
- MIC [1]: 32 µg/mL (≈ 63.4 µM)
- MIC [2]: 0.25 µg/mL (≈ 0.496 µM)
- MIC [3]: 16 µg/mL (≈ 31.7 µM)
- MIC [4]: 0.03 µg/mL (≈ 0.0595 µM)
- MIC [5]: 0.125 µg/mL (≈ 0.248 µM)
- MIC [6]: > 128 µg/mL
- MIC [7]: 0.125 µg/mL (≈ 0.248 µM)
- MIC [8]: 0.125 µg/mL (≈ 0.248 µM)
